Test results reported in patent US12678446B2 (PFIZER INC., priority 2020, dated 2026).

Tests used:
[1] = system: RSV (RSV A2 ECACC, 0709161v); assay: RSV plaque reduction assay; format: cell-based, respiratory syncytial virus; settings: human respiratory syncytial virus, HepG2, read-out: RSV A2 Plaque EC50, RSV A2 in Hep-G2 cells; mean of at least two experiments unless noted (n = 1)
How it was run: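 Hep-G2 monolayers infected with 100 PFU/well RSV A2 premixed with eight serial compound dilutions (2 h, 37° C.), then kept 2 days under CMC overlay with compound in DMEM/2% FBS. Plaques immunostained (HRP/TrueBlue) and counted; % infection versus virus control gives EC50, mean of at least two experiments, rounded.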

[2] = cell toxicity CC50; format: cell-based; settings: human; Hep-G2 cells; mean of at least two experiments; read-out: Cell Cytotoxicity CC50

Structure (SMILES) | EC50 [1] | CC50 [2]
C[C@@H]1CCn2nc(-c3cnn(CCN(C)C)c3)c(C(=O)N[C@H]3N=C(c4ccccc4)c4cccc(F)c4NC3=O)c2O1 [Example 165, (5R)-2-[1-[2-(Dimethylamino)ethyl]pyrazol-4-yl]-N-[(3S)-9-fluoro-2-oxo-5-phenyl-1,3-dihydro-1,4-benzodiazepin-3-yl]-5-methyl-6,7-dihydro-5H-pyrazolo[5,1-b][1,3]oxazine-3-carboxamide] | 349 nM | > 25000 nM
CCN(Cc1ccccc1)CC1COc2c(C(=O)N[C@H]3N=C(c4ccccc4)c4cccc(F)c4NC3=O)c(-c3ccccc3F)nn2C1 (stereo partly drawn) [Example 174, 6-[[Benzyl(ethyl)amino]methyl]-N-[(3S)-9-fluoro-2-oxo-5-phenyl-1,3-dihydro-1,4-benzodiazepin-3-yl]-2-(2-fluorophenyl)-6,7-dihydro-5H-pyrazolo[5,1-b][1,3]oxazine-3-carboxamide] | 406 nM | > 25000 nM
O=C(N[C@H]1N=C(c2ccccc2)c2ccccc2NC1=O)c1nn2c(c1-c1ccccc1F)OCC2 [Example 37, 7-(2-Fluorophenyl)-N-[(3S)-2-oxo-5-phenyl-1,3-dihydro-1,4-benzodiazepin-3-yl]-2,3-dihydropyrazolo[5,1-b][1,3]oxazole-6-carboxamide] | 333 nM | > 25000 nM
C[C@@H]1CCn2nc(-c3ccoc3)c(C(=O)N[C@H]3N=C(c4ccccc4)c4ccccc4NC3=O)c2O1 [Example 62, (5R)-2-(3-Furyl)-5-methyl-N-[(3S)-2-oxo-5-phenyl-1,3-dihydro-1,4-benzodiazepin-3-yl]-6,7-dihydro-5H-pyrazolo[5,1-b][1,3]oxazine-3-carboxamide] | 192 nM | > 25000 nM
CCc1ccc(-c2nn3c(c2C(=O)N[C@H]2N=C(c4ccccc4)c4ccccc4NC2=O)O[C@@H](C)CC3)cn1 [Example 132, (5S)-2-(6-Ethylpyridin-3-yl)-5-methyl-N-[(3S)-2-oxo-5-phenyl-1,3-dihydro-1,4-benzodiazepin-3-yl]-6,7-dihydro-5H-pyrazolo[5,1-b][1,3]oxazine-3-carboxamide] | 72 nM | > 25000 nM
CCn1cc(-c2nn3c(c2C(=O)N[C@H]2N=C(c4ccccc4)c4cccc(F)c4NC2=O)O[C@H](C)CC3)cn1 [Example 84, (5R)-2-(1-Ethylpyrazol-4-yl)-N-[(3S)-9-fluoro-2-oxo-5-phenyl-1,3-dihydro-1,4-benzodiazepin-3-yl]-5-methyl-6,7-dihydro-5H-pyrazolo[5,1-b][1,3]oxazine-3-carboxamide] | 70 nM | > 25000 nM
CC(O)Cc1ccc(-c2nn3c(c2C(=O)N[C@H]2N=C(c4ccccc4)c4ccccc4NC2=O)O[C@H](C)CC3)cn1 (stereo partly drawn) [Example 50, (5R)-2-[6-(2-Hydroxypropyl)pyridin-3-yl]-5-methyl-N-[(3S)-2-oxo-5-phenyl-1,3-dihydro-1,4-benzodiazepin-3-yl]-6,7-dihydro-5H-pyrazolo[5,1-b][1,3]oxazine-3-carboxamide] | 429 nM | > 25000 nM
O=C(N[C@H]1N=C(c2ccccc2)c2cccc(F)c2NC1=O)c1c(-c2ccccc2F)nn2c1OCC(Cn1cccn1)C2 (stereo partly drawn) [Example 124, N-[(3S)-9-fluoro-2-oxo-5-phenyl-1,3-dihydro-1,4-benzodiazepin-3-yl]-2-(2-fluorophenyl)-6-(pyrazol-1-ylmethyl)-6,7-dihydro-5H-pyrazolo[5,1-b][1,3]oxazine-3-carboxamide] | 76 nM | > 25000 nM
O=C(N[C@H]1N=C(c2ccccc2)c2cccc(F)c2NC1=O)c1c(-c2ccc(NC3CC3)nc2F)nn2c1OCCC2 [Example 39, 2-[6-(Cyclopropylamino)-2-fluoropyridin-3-yl]-N-[(3S)-9-fluoro-2-oxo-5-phenyl-1,3-dihydro-1,4-benzodiazepin-3-yl]-6,7-dihydro-5H-pyrazolo[5,1-b][1,3]oxazine-3-carboxamide] | 40 nM | > 25000 nM
CO[C@H]1CCN(c2ccc(-c3nn4c(c3C(=O)N[C@H]3N=C(c5ccccc5)c5cccc(F)c5NC3=O)O[C@H](C)CC4)cn2)C1 [Example 146, (5R)-N-[(3S)-9-fluoro-2-oxo-5-phenyl-1,3-dihydro-1,4-benzodiazepin-3-yl]-2-[6-[(3S)-3-methoxypyrrolidin-1-yl]pyridin-3-yl]-5-methyl-6,7-dihydro-5H-pyrazolo[5,1-b][1,3]oxazine-3-carboxamide] | 294 nM | > 25000 nM
C[C@@H]1CCn2nc(-c3ccccc3)c(C(=O)N[C@H]3N=C(c4ccccc4)c4cccc(F)c4NC3=O)c2O1 [Example 81, (5R)-5-Methyl-2-phenyl-N-[(3S)-9-fluoro-2-oxo-5-phenyl-1,3-dihydro-1,4-benzodiazepin-3-yl]-6,7-dihydro-5H-pyrazolo[5,1-b][1,3]oxazine-3-carboxamide] | 84 nM | > 25000 nM
C[C@@H]1CCn2nc(-c3ccc(F)nc3N3C[C@@H]4C[C@H]3CO4)c(C(=O)N[C@H]3N=C(c4ccccc4)c4cccc(F)c4NC3=O)c2O1 (single isomer, unassigned) [Example 89] | 122 nM | > 25000 nM
O=C(N[C@H]1N=C(c2ccccc2)c2cccc(F)c2NC1=O)c1c(-c2ccc(F)cc2F)nn2c1OCCC2 [Example 2, 2-(2,4-Difluorophenyl)-N-[(3S)-9-fluoro-2-oxo-5-phenyl-1,3-dihydro-1,4-benzodiazepin-3-yl]-6,7-dihydro-5H-pyrazolo[5,1-b][1,3]oxazine-3-carobxamide] | 22 nM | > 25000 nM
CCNCC1COc2c(C(=O)N[C@H]3N=C(c4ccccc4)c4cccc(F)c4NC3=O)c(-c3ccccc3F)nn2C1 (stereo partly drawn) [Example 192, 6-(Ethylaminomethyl)-N-[(3S)-9-fluoro-2-oxo-5-phenyl-1,3-dihydro-1,4-benzodiazepin-3-yl]-2-(2-fluorophenyl)-6,7-dihydro-5H-pyrazolo[5,1-b][1,3]oxazine-3-carboxamide] | 243 nM | > 24400 nM
C[C@@H]1CCn2nc(C3CCN(S(C)(=O)=O)CC3)c(C(=O)N[C@H]3N=C(c4ccccc4)c4cccc(F)c4NC3=O)c2O1 [Example 161, (5R)-N-[(3S)-9-fluoro-2-oxo-5-phenyl-1,3-dihydro-1,4-benzodiazepin-3-yl]-5-methyl-2-(1-methylsulfonylpiperi-din-4-yl)-6,7-dihydro-5H-pyrazolo[5,1-b][1,3]oxazine-3-carboxamide] | 54 nM | > 25000 nM
Cc1nn(C)cc1-c1nn2c(c1C(=O)N[C@H]1N=C(c3ccccc3)c3cccc(F)c3NC1=O)O[C@H](C)CC2 [Example 115, (5R)-2-(1,3-Dimethylpyrazol-4-yl)-N-[(3S)-9-fluoro-2-oxo-5-phenyl-1,3-dihydro-1,4-benzodiazepin-3-yl]-5-methyl-6,7-dihydro-5H-pyrazolo[5,1-b][1,3]oxazine-3-carboxamide] | 226 nM | > 25000 nM
O=C(N[C@H]1N=C(c2ccccc2)c2ccccc2NC1=O)c1c(-c2ccccc2)nn2c1OCC1(COC1)C2 [Example 28, N-[(3S)-2-oxo-5-phenyl-1,3-dihydro-1,4-benzodiazepin-3-yl]-2-phenylspiro[5,7-dihydropyrazolo[5,1-b][1,3]oxazine-6,3′-oxetane]-3-carboxamide] | 76 nM | > 25000 nM
O=C(N[C@H]1N=C(c2ccccc2)c2cccc(F)c2NC1=O)c1c(-c2ccccc2)nn2c1OCCC2 [Example 23, N-[(3S)-9-fluoro-2-oxo-5-phenyl-1,3-dihydro-1,4-benzodiazepin-3-yl]-2-phenyl-6,7-dihydro-5H-pyrazolo[5,1-b][1,3]oxazine-3-carboxamide] | 60 nM | > 25000 nM
CN(C)CC1COc2c(C(=O)N[C@H]3N=C(c4ccccc4)c4cccc(F)c4NC3=O)c(-c3ccccc3F)nn2C1 (mixture of isomers) [Example 171, 6-[(Dimethylamino)methyl]-N-[(3S)-9-fluoro-2-oxo-5-phenyl-1,3-dihydro-1,4-benzodiazepin-3-yl]-2-(2-fluorophenyl)-6,7-dihydro-5H-pyrazolo[5,1-b][1,3]oxazine-3-carboxamide] | 59 nM | > 25000 nM
C[C@@H]1CCn2nc(-c3ccc(CC(C)(C)O)nc3)c(C(=O)N[C@H]3N=C(c4ccccc4)c4cccc(F)c4NC3=O)c2O1 [Example 85, (5R)-2-[6-(2-Hydroxy-2-methylpropyl)pyridin-3-yl]-5-methyl-N-[(3S)-9-fluoro-2-oxo-5-phenyl-1,3-dihydro-1,4-benzodiazepin-3-yl]-6,7-dihydro-5H-pyrazolo[5,1-b][1,3]oxazine-3-carboxamide] | 121 nM | > 25000 nM
O=C(N[C@H]1N=C(c2ccccc2)c2cccc(F)c2NC1=O)c1c(-c2ccccc2F)nn2c1SCCC2 [Example 35, N-[(3S)-9-Fluoro-2-oxo-5-phenyl-2,3-dihydro-1H-1,4-benzodiazepin-3-yl]-2-(2-fluorophenyl)-5H,6H,7H-pyrazolo[3,2-b][1,3]thiazine-3-carboxamide] | 117 nM | > 25000 nM
CC(C)Nc1ccc(-c2nn3c(c2C(=O)N[C@H]2N=C(c4ccccc4)c4cccc(F)c4NC2=O)O[C@@H](C)CC3)c(F)n1 [Example 31, (5S)-N-[(3S)-9-fluoro-2-oxo-5-phenyl-1,3-dihydro-1,4-benzodiazepin-3-yl]-2-[2-fluoro-6-(propan-2-ylamino)pyridin-3-yl]-5-methyl-6,7-dihydro-5H-pyrazolo[5,1-b][1,3]oxazine-3-carboxamide] | 11 nM | > 25000 nM
CCc1ccc(-c2nn3c(c2C(=O)N[C@H]2N=C(c4ccccc4)c4cccc(F)c4NC2=O)O[C@H](C)CC3)c(F)c1 [Example 75, (5R)-2-(4-Ethyl-2-fluorophenyl)-5-methyl-N-[(3S)-9-fluoro-2-oxo-5-phenyl-1,3-dihydro-1,4-benzodiazepin-3-yl]-6,7-dihydro-5H-pyrazolo[5,1-b][1,3]oxazine-3-carboxamide] | 158 nM | > 25000 nM
